Reference: patent US9144248B2, “Cinnamamides as savory flavorings” (SYMRISE AG, priority 2011, dated 2015)
Entries after “also recorded” stand apart in the source; their conditions may differ.

Experiments:
Type in all cases: in vivo, human
[1] = Profiling of cinnamides in a complex base (American beef extract) by 15-25 trained panelists, descriptors scored 0-9, compared with MSG; conditions: for umami taste character compared with monosodium glutamate: comparison base + 0.05 wt. % MSG
Experimental: An American beef extract as the base, a corresponding base mixed with monosodium glutamate and a corresponding base mixed with the cinnamide were in each case administered blind individually to 15-25 trained panelists for profiling. Using the descriptors previously decided upon by discussion (mouth-fill, salty, metallic, meaty, bitter, mouth-watering, barbecued-roasted, sweet, sour, lingering) the strength of these was assessed on a scale of 0 (imperceptible) through 9 (very strong). The individual results of the panelists were averaged.
In the spider chart attached as FIG. 1 the profile of an American beef extract as the base (i) is compared with such a base with the addition of 10 ppm (iii) or 50 ppm rubemamine ([…]) (iv) and with a sample (ii) of such a base with the addition of 0.05 wt. % MSG (monosodium glutamate).
In the spider chart attached as FIG. 2 the profile of an American beef extract as the base (i) is compared with such a base with the addition of 5 ppm (iii) or 10 ppm rubescenamine (compound (3)) (iv) and with a sample (ii) of such a base with the addition of 0.05 wt. % MSG (monosodium glutamate).
The taste of a 0.5% American beef extract as base (i) was compared in a tasting by a panel of trained test subjects with the taste of such a base with 10 ppm (iii) or 50 ppm (iv) rubemamine (1) added, and such a base with 0.05 wt. % MSG added (ii).
The test subjects assessed the strength of the stated flavors by giving a score on a scale of 0 (imperceptible) through 9 (very strong corresponding taste). The mean values of the respective scorings are shown.
The taste of a 0.5% American beef extract as base (i) was compared in a tasting by a panel of trained test subjects with the taste of such a base with 5 ppm (iii) or 10 ppm (iv) rubescenamine (3) added, and such a base with 0.05 wt. % MSG added (ii).

[2] = Simple profiling of cinnamides dissolved in water, tasting by a group of experts with open discussion
Experimental: The compounds were dissolved in water in the stated concentration and assessed by a group of experts by tasting with open discussion.

[3] = Profiling of cinnamides in American beef extract base together with monosodium glutamate (enhancing effect), trained panel, descriptors scored 0-9; conditions: for enhancement of the monosodium glutamate effect: sample (iv) versus sample (ii) base + 0.05% MSG, FIG. 3: 20 ppm + 0.0025% monosodium glutamate in beef extract base
Experimental: An American beef extract as the base, a corresponding sauce mixed with monosodium glutamate, a corresponding sauce mixed with the cinnamide and a corresponding base mixed with monosodium glutamate were in each case administered blind individually to 15-25 trained panelists for profiling. Using the descriptors previously decided upon by discussion (mouth-fill, salty, metallic, meaty, bitter, mouth-watering, barbecued-roasted, sweet, sour, lingering) the strength of these was assessed on a scale of 0 (imperceptible) through 9 (very strong). The individual results of the panelists were averaged. […]
Here again (i) a beef extract as the base is compared with (ii) such a base with the addition of 0.05% monosodium glutamate, (iii) such a base with the addition of 0.0025% monosodium glutamate and (iv) such a base with the addition of 0.0025% monosodium glutamate and 5 ppm rubescenamine (3). […]
The test subjects assessed the strength of the stated flavors by giving a score on a scale of 0 (imperceptible) through 9 (very strong corresponding taste). The mean values of the respective scorings are shown. […]

[4] = 5 ppm + 0.0025% monosodium glutamate in beef extract base, listed as rubescenamine (3)

COc1ccc(/C=C/C(=O)NCCc2ccc(OC)c(OC)c2)cc1OC [Compound (1), rubemamine]
umami taste character compared with monosodium glutamate ([1]; 10 mg/kg test concentration in American beef extract base): umami taste that is very similar to that of monosodium glutamate
Taste profile (concentration in mg/kg) ([2]; 10 mg/kg): Umami (10 mg/kg)
enhancement of the monosodium glutamate effect: sample (iv) versus sample (ii) base + 0.05% MSG, FIG. 3 [3]: hardly distinguishable from one another other than a slightly lower sweetness
enhancement of the monosodium glutamate effect: sample (iv) versus sample (ii) base + 0.05% MSG, FIG. 3 ([3]; listed as rubemamine (1)): virtually indistinguishable

COc1ccc(/C=C/C(=O)NCCc2ccc3c(c2)OCO3)cc1OC [Compound (3), rubescenamine]
umami taste character compared with monosodium glutamate ([1]; 5 mg/kg test concentration in American beef extract base): umami taste that is very similar to that of monosodium glutamate
taste profile, strength of descriptors (scale 0-9), FIG. 2 curve iii ([1]; 5 ppm in American beef extract base): strong effect
taste profile, strength of descriptors (scale 0-9), FIG. 2 curve iv, versus sample (ii) base + 0.05 wt. % MSG ([1]; 10 ppm in American beef extract base): for most descriptors is able to achieve a similarly strong assessment to sample (ii)
Taste profile (concentration in mg/kg) ([2]; 10 mg/kg): Umami, otherwise neutral (10 mg/kg)
enhancement of the monosodium glutamate effect: sample (iv) versus sample (iii) base + 0.0025% MSG, FIG. 4 ([3]; 5 ppm + 0.0025% monosodium glutamate in beef extract base): in respect of virtually all parameters was assessed as stronger than sample (iii)
"salty" parameter: sample (iv) versus sample (ii) base + 0.05% MSG, FIG. 4 [3, 4]: assessed similarly to sample (ii)
enhancement of the monosodium glutamate effect: sample (iv) versus sample (iii) base + 0.0025% MSG, FIG. 4 [3, 4]: assessed more strongly on virtually all parameters than sample (iii)

O=C(/C=C/c1ccccc1)NCCc1ccc2c(c1)OCO2 [Compound (9), zanthomamine]
Taste profile (concentration in mg/kg) ([2]; 50 mg/kg): Somewhat delayed onset of umami effect (50 mg/kg)
enhancement of the monosodium glutamate effect: sample (iv) versus sample (iii) base + 0.0025% MSG, FIG. 5 ([3]; 50 ppm + 0.0025% monosodium glutamate in beef extract base): assessed more strongly on virtually all parameters than sample (iii)

N[C@@H](CCC(=O)O)C(=O)[O-].[Na+] [monosodium glutamate, reference compound]
taste profile of sample (iii) versus base (i) without addition, FIG. 3 ([3]; 0.0025% monosodium glutamate alone in beef extract base): perceived as less strong than the sample (i) without the addition; also recorded: perceived only slightly less strongly than sample (i) without the addition
